Assay results published in patent publication US20210335449A1, “Method or System for Identification of a Causative Mutation Causing a Phenotype of Interest in a Test Sample” (Oxford University Innovation Limited, priority 2018, published 2021).

System: Marchantia polymorpha wild-type plants
Test: Chlorsulfuron resistance determination (survival two weeks after exposure to a lethal dose)
Assay type: in vivo
Details: 0.1 ppm dose (lethal dose); survival assessed two weeks following exposure
Method: Marchantia polymorpha spores were irradiated with ultraviolet B irradiation and seven independent mutant lines resistant to the herbicide chlorsulfuron were identified. Chlorsulfuron resistance was determined by a Marchantia polymorpha plant that was alive two weeks following exposure to a lethal dose of Chlorsulfuron (0.1 ppm dose, i.e. a dose sufficient to kill 100% of wild-type plants).

Structure (SMILES): COc1nc(C)nc(NC(=O)NS(=O)(=O)c2ccccc2Cl)n1 [Chlorsulfuron]
- wild-type plants killed: 100%
